Data as given in ChEMBL document CHEMBL6121008, “New series of 3-pyridyl-1,3-thiazoles: In vitro and in vivo anti-Trypanosomatidae profile, in vitro and in silico mechanism of action approach” (Eur J Med Chem, 2025).
Active and inactive are the calls of the source. No cut-off for these calls is given here.

What was measured:
[1] = Acute toxicity in female Swiss-Webster mouse infected with Trypanosoma cruzi Y assessed as mortality at 5 to 200 mg/kg, po measured after 48 hrs; format: organism-based; conditions: in vivo, dose 5-200 mg/kg
Trypanosoma cruzi [2] = assay: Antiparasitic activity against trypomastigote form of Trypanosoma cruzi Y assessed as appearance of twisted bodies by Electron micrographic analysis; format: functional, organism-based
Trypanosoma cruzi [3] = assay: Antiparasitic activity against trypomastigote form of Trypanosoma cruzi Y assessed as appearance of ruptured cells with cytoplasmic content leakage by Electron micrographic analysis; format: functional, organism-based
Trypanosoma cruzi [4] = assay: (§1) Antiparasitic activity against amastigote form of Trypanosoma cruzi Tulahuen expressing Escherichia coli beta-galactosidase infected in mouse L929 cells assessed as reduction in parasitic growth using CPRG as substrate pretreated with compound for 96 hrs followed by substrate addition and measured after 16 to 20 hrs by Spectrophotometric analysis; format: functional, organism-based
Leishmania infantum [5] = assay: (§2) Antiparasitic activity against Leishmania infantum MHOM/MA/67/ITMAP-263 promastigote expressing Escherichia coli beta-galactosidase assessed as reduction in parasitic growth using CPRG as substrate preincubated with compound for 72 hrs followed by substrate addition and measured after 10 mins by Spectrophotometric analysis; format: functional, organism-based
[6] = Cytotoxicity against mouse RAW264.7 cells assessed as inhibition of cell viability incubated for 48 hrs by MTT assay; format: toxicity, cell-based
Mitochondrial membrane [7] = assay: Induction of mitochondrial membrane depolarization in trypomastigote form of Trypanosoma cruzi Y at IC50 incubated for 24 hrs by Rhodamine 123 staining based flow cytometric analysis; format: cell membranes
Leishmania amazonensis [8] = assay: (§3) Antiparasitic activity against Leishmania amazonensis amastigote expressing Escherichia coli beta-galactosidase infected in mouse RAW264.7 cells assessed as reduction in parasitic growth using CPRG as substrate preincubated with compound for 24 hrs followed by substrate addition and measured after 2 to 6 hrs by Spectrophotometric analysis; format: functional, organism-based
Trypanosoma cruzi [9] = assay: Antiparasitic activity against trypomastigote form of Trypanosoma cruzi Y assessed as appearance of filamentous structures scattered across the membrane by Electron micrographic analysis; format: functional, organism-based
Trypanosoma cruzi [10] = assay: as §1, with “trypomastigote” for “amastigote”; format: functional, organism-based
Trypanosoma cruzi [11] = assay: Antiparasitic activity against trypomastigote form of Trypanosoma cruzi Y assessed as presence of bubbles by Electron micrographic analysis; format: functional, organism-based
[12] = Selectivity index, ratio of CC50 for mouse RAW264.7 cells to IC50 for antiparasitic activity against Leishmania amazonensis amastigote expressing Escherichia coli beta-galactosidase infected in mouse RAW264.7 cells; format: toxicity; conditions: read-out: Selectivity Index
RAW264.7 [13] = assay: Immunomodulatory activity in mouse RAW264.7 cells assessed as increase in IL-6 production at 1 to 4 times IC50 incubated for 24 to 144 hrs by flow cytometric analysis; format: functional, cell-based; conditions: time 24-144 hrs
RAW264.7 [14] = assay: Immunomodulatory activity in mouse RAW264.7 cells assessed as decrease in TNF production at 1 to 4 times IC50 incubated for 24 to 144 hrs by flow cytometric analysis; format: functional, cell-based; conditions: time 24-144 hrs
[15] = Selectivity index, ratio of CC50 for mouse RAW264.7 cells to IC50 for antiparasitic activity against Leishmania infantum MHOM/MA/67/ITMAP-263 promastigote expressing Escherichia coli beta-galactosidase; format: toxicity; conditions: read-out: Selectivity Index
Trypanosoma cruzi [16] = assay: Antiparasitic activity against Trypanosoma cruzi Y trypomastigotes infected in male Swiss mouse assessed as reduction in parasitemia at 100 mg/kg/day, po pre-infected with parasite followed by compound addition and measured at 1 to 5 days post-infection by microscopic analysis; format: functional, organism-based; conditions: time 1-5 day
Leishmania infantum [17] = assay: as §3, with “infantum” for “amazonensis”; format: functional, organism-based; conditions: Leishmania infantum, RAW264.7; read-out: IC50
[18] = Acute toxicity in male Swiss-Webster mouse infected with Trypanosoma cruzi Y assessed as mortality at 5 to 200 mg/kg, po measured after 48 hrs; format: organism-based; conditions: in vivo, dose 5-200 mg/kg
Cell membrane = assay: Induction of cell membrane damage in trypomastigote form of Trypanosoma cruzi Y assessed as decrease in red fluorescence intensity incubated for 24 hrs by acridine orange staining based flow cytometric analysis; format: subcellular
[19] = Acute toxicity in female Swiss-Webster mouse infected with Trypanosoma cruzi Y assessed as side effects at 5 to 200 mg/kg, po measured after 48 hrs; format: organism-based; conditions: in vivo, dose 5-200 mg/kg
[20] = Toxicity in male Swiss mouse infected with Trypanosoma cruzi Y trypomastigotes assessed as mortality at 100 mg/kg/day, po pre-infected with parasite followed by compound addition and measured after 5 to 9 days relative to control; format: organism-based; conditions: in vivo, time 5-9 day; for Activity: po, 100 mg/kg
RAW264.7 [21] = assay: Immunomodulatory activity in mouse RAW264.7 cells assessed as decrease in IL-10 production at 1 to 4 times IC50 incubated for 24 to 144 hrs by flow cytometric analysis; format: functional, cell-based; conditions: time 24-144 hrs
[22] = Selectivity index, ratio of CC50 for mouse RAW264.7 cells to IC50 for antiparasitic activity against Leishmania infantum amastigote expressing Escherichia coli beta-galactosidase infected in mouse RAW264.7 cells; format: toxicity; conditions: read-out: Selectivity Index
[23] = Cytotoxicity against mouse L929 cells assessed as inhibition of cell viability incubated for 96 hrs by MTT assay; format: toxicity, cell-based
[24] = Selectivity index, ratio of CC50 for mouse L929 cells to IC50 for antiparasitic activity against trypomastigote and amastigote form of Trypanosoma cruzi Tulahuen expressing Escherichia coli beta-galactosidase infected in mouse L929 cells; format: toxicity; conditions: read-out: Selectivity Index
Trypanosoma cruzi [25] = assay: Antiparasitic activity against trypomastigote form of Trypanosoma cruzi Y assessed as appearance of swollen cells with cytoplasmic content leakage by Electron micrographic analysis; format: functional, organism-based
[26] = Acute toxicity in male Swiss-Webster mouse infected with Trypanosoma cruzi Y assessed as side effects at 5 to 200 mg/kg, po measured after 48 hrs; format: organism-based; conditions: in vivo, dose 5-200 mg/kg
Leishmania amazonensis [27] = assay: as §2, with “amazonensis WHOM/00 LTB 0016” for “infantum MHOM/MA/67/ITMAP-263”; format: functional, organism-based
Trypanosoma cruzi [28] = assay: Antitrypanosomal activity against trypomastigote form of Trypanosoma cruzi Y assessed as induction of apoptosis at 1 times IC50 by measuring early apoptosis incubated for 24 hrs by Annexin V-FITC/7-AAD staining based flow cytometric analysis relative to control; format: functional
Mitochondrial membrane [29] = assay: Induction of mitochondrial membrane hyperpolarization in trypomastigote form of Trypanosoma cruzi Y at IC50 incubated for 24 hrs by Rhodamine 123 staining based flow cytometric analysis; format: cell membranes
Trypanosoma cruzi [30] = assay: Antitrypanosomal activity against trypomastigote form of Trypanosoma cruzi Y assessed as induction of apoptosis at 2 times IC50 by measuring necrotic cells incubated for 24 hrs by Annexin V-FITC/7-AAD staining based flow cytometric analysis relative to control; format: functional
Trypanosoma cruzi [31] = assay: Antitrypanosomal activity against trypomastigote form of Trypanosoma cruzi Y assessed as induction of apoptosis at 2 times IC50 by measuring late apoptotic cells incubated for 24 hrs by Annexin V-FITC/7-AAD staining based flow cytometric analysis relative to control; format: functional
Trypanosoma cruzi [32] = assay: Antitrypanosomal activity against trypomastigote form of Trypanosoma cruzi Y assessed as induction of apoptosis at 2 times IC50 by measuring early apoptosis incubated for 24 hrs by Annexin V-FITC/7-AAD staining based flow cytometric analysis relative to control; format: functional
RAW264.7 [33] = assay: Immunomodulatory activity in mouse RAW264.7 cells assessed as nitric oxide formation at 1 to 4 times IC50 incubated for 72 hrs by Griess reagent based Spectrophotometric analysis; format: functional, cell-based
[34] = Selectivity index, ratio of CC50 for mouse RAW264.7 cells to IC50 for antiparasitic activity against Leishmania amazonensis WHOM/00 LTB 0016 promastigote expressing Escherichia coli beta-galactosidase; format: toxicity; conditions: read-out: Selectivity Index
Trypanosoma cruzi [35] = assay: Antiparasitic activity against trypomastigote form of Trypanosoma cruzi Y assessed as appearance of membrane rupture by Electron micrographic analysis; format: functional, organism-based
[36] = Leishmania infantum, MHOM/MA/67/ITMAP-263, read-out: IC50
[37] = Leishmania amazonensis, RAW264.7, read-out: IC50
[38] = Leishmania amazonensis, WHOM/00 LTB 0016, read-out: IC50

Row | SMILES | Activity [1] | Activity (Trypanosoma cruzi [2]) | Activity (Trypanosoma cruzi [3]) | IC50 (Trypanosoma cruzi [4]) [µM] | CC50 at 48 h [6] [µM] | Activity (Trypanosoma cruzi [9]) | IC50 (Trypanosoma cruzi [10]) [µM] | Activity (Trypanosoma cruzi [11]) | Activity (RAW264.7 [13]) | Activity (RAW264.7 [14]) | Activity (Trypanosoma cruzi [16]) | IC50 (Leishmania infantum [17]) [µM] | Activity [18] | Activity (Cell membrane) | Activity [19] | Activity [20] | Activity (RAW264.7 [21]) | selectivity ratio [22] | CC50 at 96 h [23] [µM] | selectivity ratio [24] | other results
1 | COc1ccc(-c2cs/c(=N/N=C(\C)c3cccnc3)[nH]2)cc1 | Non-toxic | Dose-dependent-effect | Dose-dependent-effect | 0.3 | 16.6 | Dose-dependent-effect | 0.3 | Dose-dependent-effect | Active | inactive | inactive | 92.6 | Non-toxic | Dose-dependent-effect | Non-toxic | Toxic | Active | 0.2 | 19.4 | 64.7 | IC50 (Leishmania infantum [5]; [36]): 174 µM; Activity (Mitochondrial membrane [7]): Active; IC50 (Leishmania amazonensis [8]; [37]): 7.7 µM; selectivity ratio [12]: 2.2; selectivity ratio [15]: 0.1; Activity (Trypanosoma cruzi [25]): Dose-dependent-effect; Activity [26]: Non-toxic; IC50 (Leishmania amazonensis [27]): Not_active
2 | C/C(=N\N=c1\scc(-c2ccccc2)n1C)c1cccnc1 | Non-toxic | Dose-dependent-effect | Dose-dependent-effect | 0.3 | 5.5 | Dose-dependent-effect | 0.3 | Dose-dependent-effect | Active | Active | inactive | 8.4 | Non-toxic | Dose-dependent-effect | Non-toxic | Toxic | Active | 0.7 | 3.5 | 11.7 | IC50 (Leishmania infantum [5]; [36]): 5.2 µM; Activity (Trypanosoma cruzi [28]): 29.4%; Activity (Mitochondrial membrane [29]): Active; IC50 (Leishmania amazonensis [8]; [37]): 9.4 µM; Activity (Trypanosoma cruzi [30]): 2.36%; selectivity ratio [12]: 0.6; Activity (Trypanosoma cruzi [31]): 3.04%; selectivity ratio [15]: 1.1; Activity (Trypanosoma cruzi [32]): 61.6%; Activity (RAW264.7 [33]): Active; selectivity ratio [34]: 0.8; Activity (Trypanosoma cruzi [25]): Dose-dependent-effect; Activity [26]: Non-toxic; IC50 (Leishmania amazonensis [27]; [38]): 7.1 µM
3 | C/C(=N\Nc1nc(-c2ccccc2)cs1)c1cccnc1 | Non-toxic | Dose-dependent-effect | Dose-dependent-effect | 0.4 | 18.3 | Dose-dependent-effect | 0.4 | Dose-dependent-effect | Active | Active | inactive | 103 | Non-toxic | Dose-dependent-effect | Non-toxic | Toxic | Active | 0.2 | 212 | 531 | IC50 (Leishmania infantum [5]; [36]): 5.4 µM; Activity (Mitochondrial membrane [7]): Active; IC50 (Leishmania amazonensis [8]; [37]): 9.9 µM; selectivity ratio [12]: 1.9; selectivity ratio [15]: 3.4; selectivity ratio [34]: 0.1; Activity (Trypanosoma cruzi [25]): Dose-dependent-effect; Activity [26]: Non-toxic; IC50 (Leishmania amazonensis [27]; [38]): 128 µM
4 | O=C(Cn1ccnc1[N+](=O)[O-])NCc1ccccc1 [BENZNIDAZOLE] |  | Active |  | 4.2 |  |  | 4.2 |  | Active |  | Active |  |  |  |  |  | Active |  | 2070 | 494 | Activity (Trypanosoma cruzi [35]): Active; mortality ([20]; male, Swiss, read-out: Activity): 100%
5 | C/C(=N\Nc1nc(-c2cccc([N+](=O)[O-])c2)cs1)c1cccnc1 | Non-toxic |  | Dose-dependent-effect | 0.4 | 35.3 | Dose-dependent-effect | 0.4 | Dose-dependent-effect | Active | inactive | inactive | 93.8 | Non-toxic | Dose-dependent-effect | Non-toxic | Toxic | Active | 0.4 | 114 | 284 | IC50 (Leishmania infantum [5]): Not_active; Activity (Trypanosoma cruzi [28]): 29.2%; Activity (Mitochondrial membrane [29]): Active; IC50 (Leishmania amazonensis [8]; raw264.7): Not_active; Activity (Trypanosoma cruzi [30]): 2.31%; Activity (Trypanosoma cruzi [31]): 9.39%; Activity (Trypanosoma cruzi [32]): 7.55%; Activity (RAW264.7 [33]): Active; Activity (Trypanosoma cruzi [25]): Dose-dependent-effect; Activity [26]: Non-toxic; IC50 (Leishmania amazonensis [27]): Not_active
